The text below walks through data of patent US20090048292A1, “SYNERGISTIC COMBINATION” (priority 2007, published 2009).

For test [1], the system named is human SK-Mel28 melanoma cells. In words: Different angiogenesis inhibitors as monotherapy in human melanoma model SK-Mel28 (FIG. 1). Format: in vivo. As to conditions: daily treatment from tumor size 20-30 mm^2; ZK261991 orally 50 mg/kg per day. The protocol: Human SK-MeI 28 melanoma cells were cultivated in RPMI1640 medium together with 1% glucose and 10% foetal calf serum. 3 million cells per animal have been transferred to NMRI nu/nu nude mice in a volume of 0,1 ml in a 1:1 mixture consisting of media and matri gel. With achieving the tumor size of about 20 mm^2, in this case on day 3, the treatment of the animals has been started.
In a human melanoma model SK-Mel28 different angiogenesis inhibitors have been tested. […] In this experiment the tumor have been daily treated with different compounds beginning after establishment of the tumors, respectively at a size of 20-30 mm^2. The compound ZK261991 was orally applied in a dosage of 50 mg/kg per day and in a volume of 0.1 ml/10 g body weight, as a 5% DMSO/Ethanol 1:1 mixture in 0.085 Myrj85®/0.9% NaCl formulation. ZK222584 (PTK/ZK, Vatalanib) comprised in the same formulation was applied. Further Bay43-9006 (Nexavar®) in 30% hydroxy propyl cyclodextrine (HP-β-CD), pH 5.0 in the same volume of 0.1 ml/10 g body weight was applied. […] However, no reaction could be determined with a dosage of 5 and 10 mg/kg (s. FIG. 2). The tumors have been treated in a daily manner with different MS-275 dosages, beginning with the set up at a size of ca. 20-30 mm^2. MS-275 was applied in 30% hydroxypropyl cyclodextrine (HP-β-CD), pH5.0, in a volume of 0.1 ml/10 g body weight.

Test [2] has as its system Human SK-MeI 28 melanoma cells. In words: Combination study of ZK 261991 and MS-275 in human SK-Mel 28 melanoma model in NMRI nu/nu nude mice (tumor area, tumor weight). Format: in vivo. As to conditions: for Tumor area on day 57, average: group average; for Tumor area of the single studied groups on day 57: single animals.
Experimental: For this, the animals have been randomized and separated into the following test group (8 animals per group, each):
MS-275; 10 mg/kg/day 3. […] Untreated control (these animals received the solution solvent, only)
The compounds are orally daily applied via a probang till the end of the experiment on day 57. The tumor size was determined (length×width) after 6-7 days. On day 57, the animals were sacrificed by breaking the neck and the tumors were isolated. The weight of the tumors was determined. The tumor size (tumor area in mm^2) was inserted into a diagram, as function of the time. An average of the tumor weight of each group was calculated, as well as the variation and was inserted into a diagram. In the same time interval the tumor size was determined, also the body weight was determined by balancing. The data were inserted in a diagram as function of the time.
The tumors were treated in a daily manner with the different compounds beginning with the establishment, at a size of ca. 20.30 mm^2. […] For the calculation of the statistically signification the SigmaStat-programm with the One-Way-ANOVA-analysis was used.
For the calculation of the statistically significance the SigmaStat-program with a One-Way-ANOVA-analysis was used.
The mark [3] stands for this setting: day 57, ZK261991 50 mg/kg/day, MS-275 10 mg/kg/day, oral daily, alone or combined.

Molecules are shown by their SMILES. Where “and” joins values, the source holds several entries; their conditions need not be identical. Identical values can stand only once.

Regarding `Clc1ccc(Nc2nnc(Cc3ccncc3)c3ccccc23)cc1` [ZK222584, Vatalanib], in test [1], the “inhibitory effect onto the tumor growth, FIG. 1” value is “No inhibitory effect”.

Consider `CNC(=O)c1cc(Oc2ccc(NC(=O)Nc3ccc(Cl)c(C(F)(F)F)c3)cc2)ccn1` [Bay43-9006], for which, in test [1], the “inhibitory effect onto the tumor growth, FIG. 1” value was “No inhibitory effect”.

As for `CN(C)C(=O)Nc1cc(CNc2ccccc2C(=O)Nc2ccc3cn(C)nc3c2)ccn1` [ZK 261991, N′2′-{[2-(3,3-Dimethylureido)pyridine-4-yl]methyl}-N-(2-methyl-2H-indazol-6-yl)Anthranilamid], in test [2] (daily oral treatment, ZK261991 50 mg/kg/day, MS-275 10 mg/kg, alone or combined, One-Way-ANOVA), the “reaction of tumor growth (tumor area) to treatment, FIG. 3” value is recorded as “statistically significant but moderate result”. Also, in test [2] (setting [3]), the “T/C value (tumor weight)” value was determined as 0.55 and the “reduction of the tumor weight in comparison to the untreated control (percentage of inhibition)” value came out at 45%. For the same compound, the “Tumor area on day 57, average” value in test [2] (ZK 261991 50 mg/kg/day oral daily, day 57) is 104.7 mm^2. In addition, the “Tumor area of the single studied groups on day 57” value in test [2] (ZK 261991 50 mg/kg/day oral daily, day 57, 50 mg/kg/day) was 109.5 mm^2 and 100.1 mm^2 (2×) and 105.0 mm^2 and 118.8 mm^2 and 88.8 mm^2 and 116.3 mm^2 and 98.9 mm^2. Further, the “inhibitory effect onto the tumor growth, FIG. 1” value in test [1] is reported as “No inhibitory effect”.

As for `Nc1ccccc1NC(=O)c1ccc(CNC(=O)OCc2cccnc2)cc1` [MS-275, 3-pyridylmethyl-N-{4-[(2-amino-phenyl)-carbamoyl]benzyl}carbamate], the “reduction of the tumor weight in comparison to the untreated control (percentage of inhibition)” value in test [2] (setting [3]) is 0%. Also, in test [2] (MS-275 10 mg/kg/day oral daily, day 57), the “Tumor area on day 57, average” value is given as 135.7 mm^2. Further, in test [2] (MS-275 10 mg/kg/day oral daily, day 57, 10 mg/kg/day), the “Tumor area of the single studied groups on day 57” value is 132.1 mm^2 and 169.1 mm^2 and 142.9 mm^2 and 128.6 mm^2 and 169.2 mm^2 and 104.2 mm^2 and 112.1 mm^2 and 127.2 mm^2.
